Data published in ChEMBL document CHEMBL5321200, “Discovery of the GSH responsive "Y-PROTACs" targeting ALK and CDK4/6 as a potential treatment for cancer” (Eur J Med Chem, 2023).
Calls of active or inactive are those of the source. The rule behind the calls is not given here.

Key:
[1] = molecular target: Protein cereblon/ALK tyrosine kinase receptor (Homo sapiens, UniProt Q96SW2+Q9UM73); assay: PROTAC activity at CRBN/ALK in human NCI-H3122 cells assessed as induction of ALK degradation incubated for 24 hrs by Western blot analysis; assay type: cell-based
Protein cereblon/ALK tyrosine kinase receptor, sequence (Q9UM73 whole entry): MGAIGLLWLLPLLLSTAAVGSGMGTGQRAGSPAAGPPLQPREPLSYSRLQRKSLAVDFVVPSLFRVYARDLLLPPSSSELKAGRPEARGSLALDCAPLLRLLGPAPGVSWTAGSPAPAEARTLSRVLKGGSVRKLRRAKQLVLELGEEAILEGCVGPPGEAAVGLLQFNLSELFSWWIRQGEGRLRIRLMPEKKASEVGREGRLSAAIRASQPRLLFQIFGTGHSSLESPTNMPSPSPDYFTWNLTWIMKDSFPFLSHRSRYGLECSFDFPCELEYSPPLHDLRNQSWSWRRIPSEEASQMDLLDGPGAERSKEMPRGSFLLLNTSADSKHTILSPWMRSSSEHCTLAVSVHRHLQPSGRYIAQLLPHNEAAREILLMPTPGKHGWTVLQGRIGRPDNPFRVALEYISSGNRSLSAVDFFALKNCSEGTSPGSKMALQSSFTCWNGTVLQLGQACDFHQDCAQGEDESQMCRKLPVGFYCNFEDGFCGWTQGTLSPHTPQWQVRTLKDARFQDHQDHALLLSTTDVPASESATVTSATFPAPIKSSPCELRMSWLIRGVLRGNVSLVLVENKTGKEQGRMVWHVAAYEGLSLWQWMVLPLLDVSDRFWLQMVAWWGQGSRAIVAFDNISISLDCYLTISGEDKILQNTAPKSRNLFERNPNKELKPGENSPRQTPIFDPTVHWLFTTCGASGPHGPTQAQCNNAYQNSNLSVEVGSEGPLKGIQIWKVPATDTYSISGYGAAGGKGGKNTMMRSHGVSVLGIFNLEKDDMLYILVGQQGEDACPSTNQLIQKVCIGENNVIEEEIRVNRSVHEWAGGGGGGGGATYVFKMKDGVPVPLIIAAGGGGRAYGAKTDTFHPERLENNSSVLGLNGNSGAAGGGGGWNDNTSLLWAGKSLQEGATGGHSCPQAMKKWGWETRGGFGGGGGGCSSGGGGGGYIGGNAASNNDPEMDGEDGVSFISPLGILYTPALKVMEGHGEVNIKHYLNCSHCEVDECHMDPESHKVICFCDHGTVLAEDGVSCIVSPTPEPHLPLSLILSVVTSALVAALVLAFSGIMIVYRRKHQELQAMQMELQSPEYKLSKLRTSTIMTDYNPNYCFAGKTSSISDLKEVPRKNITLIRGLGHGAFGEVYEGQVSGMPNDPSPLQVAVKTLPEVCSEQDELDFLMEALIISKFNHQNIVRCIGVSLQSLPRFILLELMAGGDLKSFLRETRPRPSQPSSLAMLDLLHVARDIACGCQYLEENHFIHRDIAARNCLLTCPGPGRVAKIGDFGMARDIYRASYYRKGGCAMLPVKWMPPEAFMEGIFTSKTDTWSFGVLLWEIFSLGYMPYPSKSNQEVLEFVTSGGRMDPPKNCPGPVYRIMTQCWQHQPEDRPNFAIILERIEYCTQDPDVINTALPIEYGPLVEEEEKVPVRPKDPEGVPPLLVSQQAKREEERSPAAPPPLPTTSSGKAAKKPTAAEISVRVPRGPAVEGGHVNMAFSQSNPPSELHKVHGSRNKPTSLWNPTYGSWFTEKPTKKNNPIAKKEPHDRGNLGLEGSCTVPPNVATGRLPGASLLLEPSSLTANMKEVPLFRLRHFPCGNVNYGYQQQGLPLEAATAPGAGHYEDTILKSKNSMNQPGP
Protein cereblon/ALK tyrosine kinase receptor, sequence (Q96SW2 whole entry): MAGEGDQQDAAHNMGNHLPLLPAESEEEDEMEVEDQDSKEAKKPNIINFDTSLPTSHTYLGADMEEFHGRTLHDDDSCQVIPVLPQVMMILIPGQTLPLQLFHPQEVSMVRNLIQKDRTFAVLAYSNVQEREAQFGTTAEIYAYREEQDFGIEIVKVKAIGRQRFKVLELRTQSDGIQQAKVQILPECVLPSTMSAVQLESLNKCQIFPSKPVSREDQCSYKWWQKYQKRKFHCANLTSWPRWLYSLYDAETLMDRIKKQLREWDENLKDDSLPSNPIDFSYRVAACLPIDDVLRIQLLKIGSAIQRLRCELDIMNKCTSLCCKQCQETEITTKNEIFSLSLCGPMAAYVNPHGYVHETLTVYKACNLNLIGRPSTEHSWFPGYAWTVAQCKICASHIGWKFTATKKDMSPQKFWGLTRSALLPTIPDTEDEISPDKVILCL

[2] = molecular target: ALK tyrosine kinase receptor (Homo sapiens) (UniProt Q9UM73); assay: Inhibition of ALK (unknown origin) at 1 uM by LANCE Ultra TR-FRET assay relative to control
ALK tyrosine kinase receptor (Homo sapiens), sequence (Q9UM73 19-1620 limits assumed): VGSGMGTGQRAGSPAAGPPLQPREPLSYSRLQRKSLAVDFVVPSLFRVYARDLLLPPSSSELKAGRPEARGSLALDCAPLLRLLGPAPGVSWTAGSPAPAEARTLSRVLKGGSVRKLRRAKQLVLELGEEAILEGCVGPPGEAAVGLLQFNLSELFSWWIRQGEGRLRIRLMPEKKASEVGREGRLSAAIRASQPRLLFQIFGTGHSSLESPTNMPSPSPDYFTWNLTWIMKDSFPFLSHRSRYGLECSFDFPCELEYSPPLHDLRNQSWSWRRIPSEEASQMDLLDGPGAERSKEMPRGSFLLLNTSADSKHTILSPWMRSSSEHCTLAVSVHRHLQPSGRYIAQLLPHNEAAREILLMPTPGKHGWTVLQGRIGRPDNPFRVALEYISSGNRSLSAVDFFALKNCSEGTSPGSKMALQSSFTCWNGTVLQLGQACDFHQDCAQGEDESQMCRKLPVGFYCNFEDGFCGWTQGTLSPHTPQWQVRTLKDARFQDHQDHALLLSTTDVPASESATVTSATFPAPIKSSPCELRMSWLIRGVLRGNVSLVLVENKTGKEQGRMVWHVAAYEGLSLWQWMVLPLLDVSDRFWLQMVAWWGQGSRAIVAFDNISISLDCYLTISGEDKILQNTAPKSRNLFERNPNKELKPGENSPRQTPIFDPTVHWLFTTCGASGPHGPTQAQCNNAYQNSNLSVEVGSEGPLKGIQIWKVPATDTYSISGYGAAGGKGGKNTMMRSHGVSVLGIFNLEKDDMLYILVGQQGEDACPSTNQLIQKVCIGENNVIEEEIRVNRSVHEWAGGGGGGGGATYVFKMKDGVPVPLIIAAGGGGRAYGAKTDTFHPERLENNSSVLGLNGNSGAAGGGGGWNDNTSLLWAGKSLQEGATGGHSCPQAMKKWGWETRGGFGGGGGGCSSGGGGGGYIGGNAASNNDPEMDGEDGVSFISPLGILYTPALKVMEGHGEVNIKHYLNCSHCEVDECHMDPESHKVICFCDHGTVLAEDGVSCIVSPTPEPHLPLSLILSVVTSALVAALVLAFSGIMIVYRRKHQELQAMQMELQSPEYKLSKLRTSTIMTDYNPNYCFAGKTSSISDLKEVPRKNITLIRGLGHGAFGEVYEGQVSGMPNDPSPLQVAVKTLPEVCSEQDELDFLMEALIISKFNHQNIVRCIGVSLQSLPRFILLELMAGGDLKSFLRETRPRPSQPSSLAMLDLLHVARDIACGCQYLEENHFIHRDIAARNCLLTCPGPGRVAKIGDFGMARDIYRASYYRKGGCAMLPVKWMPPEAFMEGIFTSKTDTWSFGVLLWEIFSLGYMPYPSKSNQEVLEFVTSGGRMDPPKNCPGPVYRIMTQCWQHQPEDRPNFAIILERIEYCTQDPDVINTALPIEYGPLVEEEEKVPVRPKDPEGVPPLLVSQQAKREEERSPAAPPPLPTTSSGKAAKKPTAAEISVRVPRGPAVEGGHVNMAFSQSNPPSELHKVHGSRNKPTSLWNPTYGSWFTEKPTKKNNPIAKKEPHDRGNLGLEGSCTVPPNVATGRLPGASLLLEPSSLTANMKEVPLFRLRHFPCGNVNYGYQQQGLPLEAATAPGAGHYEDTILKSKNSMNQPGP

[3] = molecular target: ALK tyrosine kinase receptor (Homo sapiens) (UniProt Q9UM73); assay: Inhibition of ALK (unknown origin) at 0.05 uM by LANCE Ultra TR-FRET assay relative to control
NCI-H3122 [4] = assay: Antiproliferative activity against human NCI-H3122 cells assessed as inhibition of cell growth incubated for 5 days by MTT assay; assay type: functional, cell-based; details: NCI-H3122, 120 h
NCI-H3122 [5] = assay: Antiproliferative activity against human NCI-H3122 cells assessed as inhibition of cell growth incubated for 5 days in presence of 2-(4-(6-((6-acetyl-8-cyclopentyl-5-methyl-7-oxo-7,8-dihydropyrido[2,3-d]pyrimidin-2-yl)amino)pyridin-3-yl)piperazin-1-yl)-N-(2-mercaptoethyl)acetamide by MTT assay; assay type: functional, cell-based; details: NCI-H3122, 120 h
NCI-H3122 [6] = assay: Antitumor activity against human NCI-H3122 cells xenografted in BALB/c nude mouse assessed as tumor growth inhibition at 50 mg/kg, IG administered once daily for 18 days and measured after 12 hrs of last dose relative to control; assay type: functional; details: NCI-H3122, po, time 444 hrs, read-out: TGI
NCI-H3122 [7] = assay: Antitumor activity against human NCI-H3122 cells xenografted in BALB/c nude mouse assessed as reduction in tumor volume at 50 mg/kg, IG administered once daily for 18 days and measured after 12 hrs of last dose; assay type: functional, organism-based; details: time 444.0 hrs
NCI-H3122 [8] = assay: Antitumor activity against human NCI-H3122 cells xenografted in BALB/c nude mouse assessed as reduction in tumor weight at 50 mg/kg, IG administered once daily for 18 days and measured after 12 hrs of last dose; assay type: functional, organism-based; details: time 444.0 hrs
Mus musculus = assay: In vivo PROTAC activity at CRBN/EML4-ALK in BALB/c nude mouse xenografted with human NCI-H3122 cells assessed as reduction in EML4-ALK protein expression in tumor at 50 mg/kg, IG administered once daily for 18 days and measured after 12 hrs of last dose by immunohistochemical analysis; assay type: functional, organism-based; details: time 444.0 hrs
[9] = Toxicity in BALB/c nude mouse xenografted with human NCI-H3122 cells assessed as tolerance at 25 to 50 mg/kg, IG administered once daily for 18 days; assay type: organism-based; details: in vivo, po, 432 h, dose 25-50 mg/kg, time 18 day
[10] = Toxicity in BALB/c nude mouse xenografted with human NCI-H3122 cells assessed as reduction in body weight at 25 to 50 mg/kg, IG administered once daily for 18 days; assay type: organism-based; details: in vivo, po, 432 h, dose 25-50 mg/kg, time 18 day
[11] = Toxicity in BALB/c nude mouse xenografted with human NCI-H3122 cells assessed as effect on visceral liver morphology at 50 mg/kg, IG administered once daily for 18 days and measured after 12 hrs of last dose by H and E staining based assay; assay type: organism-based; details: in vivo, po, 444 h
[12] = Toxicity in BALB/c nude mouse xenografted with human NCI-H3122 cells assessed as effect on visceral spleen morphology at 50 mg/kg, IG administered once daily for 18 days and measured after 12 hrs of last dose by H and E staining based assay; assay type: organism-based; details: in vivo, po, 444 h
[13] = Toxicity in BALB/c nude mouse xenografted with human NCI-H3122 cells assessed as effect on visceral lung morphology at 50 mg/kg, IG administered once daily for 18 days and measured after 12 hrs of last dose by H and E staining based assay; assay type: organism-based; details: in vivo, po, 444 h
[14] = Toxicity in BALB/c nude mouse xenografted with human NCI-H3122 cells assessed as effect on visceral kidney morphology at 50 mg/kg, IG administered once daily for 18 days and measured after 12 hrs of last dose by H and E staining based assay; assay type: organism-based; details: in vivo, po, 444 h
[15] = Toxicity in BALB/c nude mouse xenografted with human NCI-H3122 cells assessed as effect on liver function at 50 mg/kg, IG administered once daily for 18 days by H and E staining based assay; assay type: organism-based; details: in vivo, po, 432 h, time 18 day
[16] = Toxicity in BALB/c nude mouse xenografted with human NCI-H3122 cells assessed as effect on spleen function at 50 mg/kg, IG administered once daily for 18 days by H and E staining based assay; assay type: organism-based; details: in vivo, po, 432 h, time 18 day
[17] = Toxicity in BALB/c nude mouse xenografted with human NCI-H3122 cells assessed as effect on lung function at 50 mg/kg, IG administered once daily for 18 days by H and E staining based assay; assay type: organism-based; details: in vivo, po, 432 h, time 18 day
[18] = Toxicity in BALB/c nude mouse xenografted with human NCI-H3122 cells assessed as effect on kidney function at 50 mg/kg, IG administered once daily for 18 days by H and E staining based assay; assay type: organism-based; details: in vivo, po, 432 h, time 18 day
[19] = Toxicity in BALB/c nude mouse xenografted with human NCI-H3122 cells assessed as effect on visceral heart morphology at 50 mg/kg, IG administered once daily for 18 days and measured after 12 hrs of last dose by H and E staining based assay; assay type: organism-based; details: in vivo, po, 444 h
[20] = Toxicity in BALB/c nude mouse xenografted with human NCI-H3122 cells assessed as effect on heart function at 50 mg/kg, IG administered once daily for 18 days and measured after 12 hrs of last dose by H and E staining based assay; assay type: organism-based; details: in vivo, po, 444 h

Cc1cc(Nc2ncc(Cl)c(Nc3ccccc3S(=O)(=O)C(C)C)n2)c(OC(C)C)cc1C1CCN(C(=O)CCCCCCC(=O)N(CCS)CC(=O)NCCNc2cccc3c2C(=O)N(C2CCC(=O)NC2=O)C3=O)CC1 (stereo unspecified)
EC50 [1]: 690 nM | inhibition [2]: 93% | inhibition [3]: 82.2% | IC50 (NCI-H3122 [4]): 380 nM | IC50 (NCI-H3122 [5]): 190 nM | inhibition in vivo at 50 mg/kg (NCI-H3122 [6]): 51.1% | Activity (NCI-H3122 [7]): Active | Activity (NCI-H3122 [8]): Active | Activity (Mus musculus): Active | Activity [9]: Non-Toxic | Activity [10]: Non-Toxic | Activity [11]: Non-Toxic | Activity [12]: Non-Toxic | Activity [13]: Non-Toxic | Activity [14]: Non-Toxic | Activity [15]: Non-Toxic | Activity [16]: Non-Toxic | Activity [17]: Non-Toxic | Activity [18]: Non-Toxic | Activity [19]: Non-Toxic | Activity [20]: Non-Toxic
